Data taken from patent US11992011B2, “Compounds for controlling plant pathogens” (VIB VZW, priority 2017, dated 2024).

System: Meloidogyne graminicola
Assay: Application regimens of PA, rice - Meloidogyne graminicola (Example 8)
Format: in vivo
Method: Seed coatings were applied by dipping seeds in a coating solution containing 20 g/I high viscosity carboxymethylcellulose (Sigma-Aldrich, Saint Louis, USA) in distilled water as well as 300 μM of the target compound. Seeds were then dried overnight at room temperature.
Infection experiments with M. graminicola were performed by inoculating host plants 14 days after transfer to SAP by introducing the desired amount of J2 juveniles next to the root system using a micro pipette. Rice plants (cv. Nipponbare or Kitaake) were inoculated with 250 J2 juveniles per plant; wheat plants (cv. Sahara) were inoculated with 600 J2 juveniles per plant. Plants were harvested 14 days after inoculation. At this point, the plants were phenotyped by measuring the shoot and root length with a ruler, counting the number of adventitious roots and in some experiments by measuring leaf area using the EasyLeafArea software (Easlon and Bloom, 2014) and by determining shoot dry mass after 72 hours of drying in an oven at 70° C. Root systems were then stained in acid fuchsine as described in (Byrd et al., 1983) and left to destain in glycerol with 1 ml/l fuming HCl added for approximately ten days. The number of galls and nematodes was then counted using a binocular microscope.
Four application regimes for PA on the rice-Meloidogyne graminicola interaction were compared: a seed coating treatment, a single high-dose foliar spray prior to infection, a single high-dose foliar spray after infection and repeated lower-dose foliar sprays throughout the growing period.
One hundred rice seeds (cv. Nipponbare) were randomly divided into five groups of twenty seeds: a control group, seeds that were coated with carboxymethylcellulose containing 300 μM PA (PA coating), a group that would be foliarly sprayed with 100 μM PA solution three times per week (PA continuous), a group that would be sprayed once with a 300 μM PA solution one day prior to nematode inoculation (PA−1 dpi) and a group that would be sprayed once with a 300 μM PA solution seven days after nematode inoculation (PA+7 dpi).
The experiment was carried out as per the materials and methods described in Materials and Methods, sections Oryza sativa (rice) and Meloidogyne graminicola culture.

[1] = PA +7 dpi: sprayed once with 300 μM PA seven days after inoculation, n = 8
[2] = PA coating: seeds coated with carboxymethylcellulose solution containing 300 μM PA, n = 7
[3] = PA continuous: sprayed three times a week with 100 μM PA, n = 9
[4] = PA −1 dpi: sprayed once with 300 μM PA one day before inoculation, n = 8

With `O=C(O)c1ccc2c(c1)OCO2` [PA, Piperonylic acid] the “Fraction of small galls” value [1] was 0.91 ± 0.11, the Number of galls [1] was 18.1 ± 13.6 and the “Number of galls per AR” value [1] was 1.1 ± 0.6. The “Fraction of small galls” value [2] was 0.96 ± 0.04, the Number of galls [2] was 19.0 ± 11.0 and the “Number of galls per AR” value [2] was 1.3 ± 0.8. For the same molecule, the “Fraction of small galls” value [3] was 0.95 ± 0.08, the Number of galls [3] was 18.1 ± 13.1 and the “Number of galls per AR” value [3] was 1.2 ± 0.7. For the same molecule, the “mortality of seedlings from seeds coated with PA” value (PA seed coating, two out of ten in the control group, not statistically significant) was “four of ten”, the “Fraction of small galls” value [4] was 0.91 ± 0.06 and the Number of galls [4] was 25.3 ± 9.4. The “Number of galls per AR” value [4] was 1.4 ± 0.5.
